# From publication PMC6409085, “Three odorant-binding proteins are involved in the behavioral response of Sogatella furcifera to rice plant volatiles” (PeerJ, 2019)
# “And” between values parts separate entries of the source, which are not always exact repeats. Identical values can stand only once.
# How the values were obtained:
# SfurOBP3 = SfurOBP3 (Sogatella furcifera, UniProt V5T818); assay: biochemical; type: binding; settings: for Fluorescence competitive binding assay, fluorescence intensity: OBP3, three replicate columns
# Outline: (§1)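 Fluorescence competitive binding with 1-NPN as reporter: 2.0 µM protein and 2.0 µM 1-NPN in 50 mM Tris-HCl pH 7.4, odorant added at 2–20 µM final. Excitation 337 nm, emission 390–490 nm read 2 min after addition, triplicates. Ki = IC50/(1 + [1-NPN]/K1-NPN).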
# SfurOBP1 = SfurOBP1 (Sogatella furcifera, UniProt V5T8N5); assay: biochemical; type: binding; settings: for Fluorescence competitive binding assay, fluorescence intensity: OBP1, three replicate columns
# Outline: as §1
# SfurOBP2 = SfurOBP2 (Sogatella furcifera, UniProt V5T759); assay: biochemical; type: binding
# Outline: as §1
# SfurOBP11 = SfurOBP11 (Sogatella furcifera, UniProt V5T6E3); assay: biochemical; type: binding
# Outline: as §1
# S. furcifera adults = assay: Y-tube olfactometer behavioral trials; type: in vivo, Sogatella furcifera; settings: odorant 50 µL/L vs hexane; adults
# Outline: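 Single S. furcifera adults (2 days post-emergence, starved 0.5 h) chose between odorant (100 µL of 50 µL/L on filter paper) and hexane control in a glass Y-tube, charcoal-filtered humidified air 300 mL/min per arm, 25 ± 1 °C, 50% RH. Choice scored if insect passed half an arm and stayed >1 min within 10 min; 45 insects per compound, chi-squared test.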
# SfurOBP1, sequence (V5T8N5 entry or part of it): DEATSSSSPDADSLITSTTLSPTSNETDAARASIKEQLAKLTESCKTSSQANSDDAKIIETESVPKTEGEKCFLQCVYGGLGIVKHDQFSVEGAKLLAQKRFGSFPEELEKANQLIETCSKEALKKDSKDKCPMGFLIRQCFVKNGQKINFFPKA
# SfurOBP2, sequence (V5T759 entry or part of it): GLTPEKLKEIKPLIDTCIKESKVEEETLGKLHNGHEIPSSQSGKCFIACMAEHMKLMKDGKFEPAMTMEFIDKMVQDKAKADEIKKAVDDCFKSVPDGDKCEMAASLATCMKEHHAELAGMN
# SfurOBP11, sequence (V5T6E3 entry or part of it): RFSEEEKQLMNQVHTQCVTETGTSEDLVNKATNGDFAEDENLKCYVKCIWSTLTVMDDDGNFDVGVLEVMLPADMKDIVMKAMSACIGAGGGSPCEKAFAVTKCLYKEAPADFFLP
# SfurOBP3, sequence (V5T818 entry or part of it): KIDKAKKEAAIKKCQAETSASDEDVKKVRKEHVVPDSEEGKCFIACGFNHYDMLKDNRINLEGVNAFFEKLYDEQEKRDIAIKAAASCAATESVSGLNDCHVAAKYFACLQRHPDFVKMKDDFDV
structure (smiles),measurement,setting,value
Cc1ccc(C(C)C)cc1 [4-isopropyltoluene],IC50,SfurOBP3,> 20 µM
same,"Fluorescence competitive binding assay, fluorescence intensity",SfurOBP3; ligand concentration 2,76459 and 72745 and 73014
same,"Fluorescence competitive binding assay, fluorescence intensity",SfurOBP3; ligand concentration 4,75454 and 75539 and 76517
same,"Fluorescence competitive binding assay, fluorescence intensity",SfurOBP3; ligand concentration 6,77021 and 76644 and 73341
same,"Fluorescence competitive binding assay, fluorescence intensity",SfurOBP3; ligand concentration 8,70448 and 67651 and 65820
same,"Fluorescence competitive binding assay, fluorescence intensity",SfurOBP3; ligand concentration 10,65984 and 64535 and 66083
same,"Fluorescence competitive binding assay, fluorescence intensity",SfurOBP3; ligand concentration 12,59229 and 62714 and 59705
same,"Fluorescence competitive binding assay, fluorescence intensity",SfurOBP3; ligand concentration 14,51855 and 54624 and 58162
same,"Fluorescence competitive binding assay, fluorescence intensity",SfurOBP3; ligand concentration 16,47509 and 50343 and 51946
same,"Fluorescence competitive binding assay, fluorescence intensity",SfurOBP3; ligand concentration 18,53658 and 55976 and 54775
same,"Fluorescence competitive binding assay, fluorescence intensity",SfurOBP3; ligand concentration 20,49838 and 49582 and 48822
same,IC50,SfurOBP1,> 20 µM
same,"Fluorescence competitive binding assay, fluorescence intensity",SfurOBP1; ligand concentration 2 (μM),7244 and 8974 and 9151
same,"Fluorescence competitive binding assay, fluorescence intensity",SfurOBP1; ligand concentration 4 (μM),8883 and 8922 and 8958
same,"Fluorescence competitive binding assay, fluorescence intensity",SfurOBP1; ligand concentration 6 (μM),7592 and 6723 and 7351
same,"Fluorescence competitive binding assay, fluorescence intensity",SfurOBP1; ligand concentration 8 (μM),6920 and 7774 and 7302
same,"Fluorescence competitive binding assay, fluorescence intensity",SfurOBP1; ligand concentration 10 (μM),7780 and 7649 and 7941
same,"Fluorescence competitive binding assay, fluorescence intensity",SfurOBP1; ligand concentration 12 (μM),6330 and 8293 and 7991
same,"Fluorescence competitive binding assay, fluorescence intensity",SfurOBP1; ligand concentration 14 (μM),6493 and 6423 and 6689
same,"Fluorescence competitive binding assay, fluorescence intensity",SfurOBP1; ligand concentration 16 (μM),5419 and 7344 and 6052
same,"Fluorescence competitive binding assay, fluorescence intensity",SfurOBP1; ligand concentration 18 (μM),6795 and 8973 and 7227
same,"Fluorescence competitive binding assay, fluorescence intensity",SfurOBP1; ligand concentration 20 (μM),8723 and 7567 and 6306
same,IC50,SfurOBP2,> 20 µM
same,"Fluorescence competitive binding assay, OBP2 (raw fluorescence reading)","SfurOBP2; ligand concentration 2 (unit not given), replicate column 1 of 3",17529
same,"Fluorescence competitive binding assay, OBP2 (raw fluorescence reading)","SfurOBP2; ligand concentration 2 (unit not given), replicate column 2 of 3",17068
same,"Fluorescence competitive binding assay, OBP2 (raw fluorescence reading)","SfurOBP2; ligand concentration 2 (unit not given), replicate column 3 of 3",16667
same,"Fluorescence competitive binding assay, OBP2 (raw fluorescence reading)","SfurOBP2; ligand concentration 4 (unit not given), replicate column 1 of 3",17068
same,"Fluorescence competitive binding assay, OBP2 (raw fluorescence reading)","SfurOBP2; ligand concentration 4 (unit not given), replicate column 2 of 3",16662
same,"Fluorescence competitive binding assay, OBP2 (raw fluorescence reading)","SfurOBP2; ligand concentration 4 (unit not given), replicate column 3 of 3",16270
same,"Fluorescence competitive binding assay, OBP2 (raw fluorescence reading)","SfurOBP2; ligand concentration 6 (unit not given), replicate column 1 of 3",17127
same,"Fluorescence competitive binding assay, OBP2 (raw fluorescence reading)","SfurOBP2; ligand concentration 6 (unit not given), replicate column 2 of 3",17348
same,"Fluorescence competitive binding assay, OBP2 (raw fluorescence reading)","SfurOBP2; ligand concentration 6 (unit not given), replicate column 3 of 3",16845
same,"Fluorescence competitive binding assay, OBP2 (raw fluorescence reading)","SfurOBP2; ligand concentration 8 (unit not given), replicate column 1 of 3",17260
same,"Fluorescence competitive binding assay, OBP2 (raw fluorescence reading)","SfurOBP2; ligand concentration 8 (unit not given), replicate column 2 of 3",16330
same,"Fluorescence competitive binding assay, OBP2 (raw fluorescence reading)","SfurOBP2; ligand concentration 8 (unit not given), replicate column 3 of 3",16495
same,"Fluorescence competitive binding assay, OBP2 (raw fluorescence reading)","SfurOBP2; ligand concentration 10 (unit not given), replicate column 1 of 3",16487
same,"Fluorescence competitive binding assay, OBP2 (raw fluorescence reading)","SfurOBP2; ligand concentration 10 (unit not given), replicate column 2 of 3",17551
same,"Fluorescence competitive binding assay, OBP2 (raw fluorescence reading)","SfurOBP2; ligand concentration 10 (unit not given), replicate column 3 of 3",16673
same,"Fluorescence competitive binding assay, OBP2 (raw fluorescence reading)","SfurOBP2; ligand concentration 12 (unit not given), replicate column 1 of 3",14433
same,"Fluorescence competitive binding assay, OBP2 (raw fluorescence reading)","SfurOBP2; ligand concentration 12 (unit not given), replicate column 2 of 3",15818
same,"Fluorescence competitive binding assay, OBP2 (raw fluorescence reading)","SfurOBP2; ligand concentration 12 (unit not given), replicate column 3 of 3",14693
same,"Fluorescence competitive binding assay, OBP2 (raw fluorescence reading)","SfurOBP2; ligand concentration 14 (unit not given), replicate column 1 of 3",14333
same,"Fluorescence competitive binding assay, OBP2 (raw fluorescence reading)","SfurOBP2; ligand concentration 14 (unit not given), replicate column 2 of 3",14565
same,"Fluorescence competitive binding assay, OBP2 (raw fluorescence reading)","SfurOBP2; ligand concentration 14 (unit not given), replicate column 3 of 3",13503
same,"Fluorescence competitive binding assay, OBP2 (raw fluorescence reading)","SfurOBP2; ligand concentration 16 (unit not given), replicate column 1 of 3",12972
same,"Fluorescence competitive binding assay, OBP2 (raw fluorescence reading)","SfurOBP2; ligand concentration 16 (unit not given), replicate column 2 of 3",13456
same,"Fluorescence competitive binding assay, OBP2 (raw fluorescence reading)","SfurOBP2; ligand concentration 16 (unit not given), replicate column 3 of 3",13282
same,"Fluorescence competitive binding assay, OBP2 (raw fluorescence reading)","SfurOBP2; ligand concentration 18 (unit not given), replicate column 1 of 3",13043
same,"Fluorescence competitive binding assay, OBP2 (raw fluorescence reading)","SfurOBP2; ligand concentration 18 (unit not given), replicate column 2 of 3",13102
same,"Fluorescence competitive binding assay, OBP2 (raw fluorescence reading)","SfurOBP2; ligand concentration 18 (unit not given), replicate column 3 of 3",13475
same,"Fluorescence competitive binding assay, OBP2 (raw fluorescence reading)","SfurOBP2; ligand concentration 20 (unit not given), replicate column 1 of 3",13105
same,"Fluorescence competitive binding assay, OBP2 (raw fluorescence reading)","SfurOBP2; ligand concentration 20 (unit not given), replicate column 2 of 3",12354
same,"Fluorescence competitive binding assay, OBP2 (raw fluorescence reading)","SfurOBP2; ligand concentration 20 (unit not given), replicate column 3 of 3",13093
same,IC50,SfurOBP11,> 20 µM
same,"Fluorescence intensity, fluorescence competitive binding assay, OBP11","SfurOBP11; ligand concentration 2, replicate 1",35978
same,"Fluorescence intensity, fluorescence competitive binding assay, OBP11","SfurOBP11; ligand concentration 2, replicate 2",29566
same,"Fluorescence intensity, fluorescence competitive binding assay, OBP11","SfurOBP11; ligand concentration 2, replicate 3",32252
same,"Fluorescence intensity, fluorescence competitive binding assay, OBP11","SfurOBP11; ligand concentration 4, replicate 1",30015
same,"Fluorescence intensity, fluorescence competitive binding assay, OBP11","SfurOBP11; ligand concentration 4, replicate 2",32067
same,"Fluorescence intensity, fluorescence competitive binding assay, OBP11","SfurOBP11; ligand concentration 4, replicate 3",31035
same,"Fluorescence intensity, fluorescence competitive binding assay, OBP11","SfurOBP11; ligand concentration 6, replicate 1",30703
same,"Fluorescence intensity, fluorescence competitive binding assay, OBP11","SfurOBP11; ligand concentration 6, replicate 2",29596
same,"Fluorescence intensity, fluorescence competitive binding assay, OBP11","SfurOBP11; ligand concentration 6, replicate 3",29854
same,"Fluorescence intensity, fluorescence competitive binding assay, OBP11","SfurOBP11; ligand concentration 8, replicate 1",26981
same,"Fluorescence intensity, fluorescence competitive binding assay, OBP11","SfurOBP11; ligand concentration 8, replicate 2",27991
same,"Fluorescence intensity, fluorescence competitive binding assay, OBP11","SfurOBP11; ligand concentration 8, replicate 3",25842
same,"Fluorescence intensity, fluorescence competitive binding assay, OBP11","SfurOBP11; ligand concentration 10, replicate 1",25875
same,"Fluorescence intensity, fluorescence competitive binding assay, OBP11","SfurOBP11; ligand concentration 10, replicate 2",25879
same,"Fluorescence intensity, fluorescence competitive binding assay, OBP11","SfurOBP11; ligand concentration 10, replicate 3",25958
same,"Fluorescence intensity, fluorescence competitive binding assay, OBP11","SfurOBP11; ligand concentration 12, replicate 1",23828
same,"Fluorescence intensity, fluorescence competitive binding assay, OBP11","SfurOBP11; ligand concentration 12, replicate 2",23071
same,"Fluorescence intensity, fluorescence competitive binding assay, OBP11","SfurOBP11; ligand concentration 12, replicate 3",23450
same,"Fluorescence intensity, fluorescence competitive binding assay, OBP11","SfurOBP11; ligand concentration 14, replicate 1",21639
same,"Fluorescence intensity, fluorescence competitive binding assay, OBP11","SfurOBP11; ligand concentration 14, replicate 2",22165
same,"Fluorescence intensity, fluorescence competitive binding assay, OBP11","SfurOBP11; ligand concentration 14, replicate 3",24226
same,"Fluorescence intensity, fluorescence competitive binding assay, OBP11","SfurOBP11; ligand concentration 16, replicate 1",19389
same,"Fluorescence intensity, fluorescence competitive binding assay, OBP11","SfurOBP11; ligand concentration 16, replicate 2",17044
same,"Fluorescence intensity, fluorescence competitive binding assay, OBP11","SfurOBP11; ligand concentration 16, replicate 3",20238
same,"Fluorescence intensity, fluorescence competitive binding assay, OBP11","SfurOBP11; ligand concentration 18, replicate 1",24841
same,"Fluorescence intensity, fluorescence competitive binding assay, OBP11","SfurOBP11; ligand concentration 18, replicate 2",23918
same,"Fluorescence intensity, fluorescence competitive binding assay, OBP11","SfurOBP11; ligand concentration 18, replicate 3",23440
same,"Fluorescence intensity, fluorescence competitive binding assay, OBP11","SfurOBP11; ligand concentration 20, replicate 1",24558
same,"Fluorescence intensity, fluorescence competitive binding assay, OBP11","SfurOBP11; ligand concentration 20, replicate 2",23570
same,"Fluorescence intensity, fluorescence competitive binding assay, OBP11","SfurOBP11; ligand concentration 20, replicate 3",24060
same,number of insects choosing hexane arm,S. furcifera adults,13
same,number of insects choosing volatilies arm,S. furcifera adults,11
same,number of insects failed (no choice),S. furcifera adults,16
